PubChem BioAssay AID248 (DTP/NCI, 2004)
Toxic doses and inconclusive results are not listed.

System: L1210 leukemia ip in BDF1 mice, survival T/C
Assay: NCI In Vivo Anticancer Drug Screen. Data for tumor model L1210 Leukemia (intraperitoneal) in B6D2F1 (BDF1) mice
Details: endpoint: mean survival time, higher = longer survival
Summary of the method: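 Read-out is survival time, reported as the treated-group measurement over the vehicle-control measurement.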

[N-]=[N+]=CC(=O)CCC(N)C(=O)O (stereo not drawn)
T/C (dose: 0.01 mg/kg/injection, schedule: Q01DX015 (ip), vehicle: water): 101 % of control
T/C (dose: 0.03 mg/kg/injection, schedule: Q01DX015 (ip), vehicle: water): 118 % of control
T/C (dose: 0.05 mg/kg/injection, schedule: Q01DX009 (ip), vehicle: saline): 118 % of control
T/C (dose: 0.06 mg/kg/injection, schedule: Q01DX009 (oral), vehicle: saline): 114 % of control
T/C (dose: 0.1 mg/kg/injection, schedule: Q01DX015 (ip), vehicle: other): 168 % of control
T/C (dose: 0.1 mg/kg/injection, schedule: Q01DX015 (ip), vehicle: water): 154 % of control
T/C (dose: 0.2 mg/kg/injection, schedule: Q01DX009 (ip), vehicle: saline): 120 % of control
T/C (dose: 0.2 mg/kg/injection, schedule: Q01DX009 (oral), vehicle: saline): 150 % of control
T/C (dose: 0.2 mg/kg/injection, schedule: Q01DX015 (ip), vehicle: other): 210 % of control
T/C (dose: 0.2 mg/kg/injection, schedule: Q01DX015 (ip), vehicle: water): 156 % of control
T/C (dose: 0.25 mg/kg/injection, schedule: Q01DX009 (oral), vehicle: saline): 164 % of control
T/C (dose: 0.39 mg/kg/injection, schedule: Q03HX016 (ip), vehicle: saline): 150 % of control
T/C (dose: 0.39 mg/kg/injection, schedule: Q03HX024 (ip), vehicle: saline): 184 % of control
T/C (dose: 0.4 mg/kg/injection, schedule: Q01DX009 (ip), vehicle: saline): 104 % of control
T/C (dose: 0.4 mg/kg/injection, schedule: Q01DX015 (ip), vehicle: water): 218 % of control
T/C (dose: 0.4 mg/kg/injection, schedule: Q02DX005 (oral), vehicle: saline): 162 % of control
T/C (dose: 0.6 mg/kg/injection, schedule: Q01DX015 (ip), vehicle: water): 168 % of control
T/C (dose: 0.63 mg/kg/injection, schedule: Q02DX008 (ip), vehicle: water): 156 % of control
T/C (dose: 0.78 mg/kg/injection, schedule: Q03HX016 (ip), vehicle: saline): 165 % of control
T/C (dose: 0.78 mg/kg/injection, schedule: Q03HX024 (ip), vehicle: saline): 194 % of control
T/C (dose: 0.8 mg/kg/injection, schedule: Q02DX005 (oral), vehicle: saline): 150 % of control
T/C (dose: 1.25 mg/kg/injection, schedule: Q02DX008 (ip), vehicle: water): 180 % of control
T/C (dose: 1.25 mg/kg/injection, schedule: Q02DX008 (oral), vehicle: water): 162 % of control
T/C (dose: 1.56 mg/kg/injection, schedule: Q03HX016 (ip), vehicle: saline): 160 % of control
T/C (dose: 1.56 mg/kg/injection, schedule: Q03HX024 (ip), vehicle: saline): 174 % of control
T/C (dose: 1.6 mg/kg/injection, schedule: Q02DX005 (oral), vehicle: saline): 167 % of control
T/C (dose: 2.5 mg/kg/injection, schedule: Q02DX008 (ip), vehicle: other): 187 % of control
T/C (dose: 2.5 mg/kg/injection, schedule: Q02DX008 (oral), vehicle: other): 156 % of control
T/C (dose: 2.5 mg/kg/injection, schedule: Q02DX008 (oral), vehicle: water): 205 % of control
T/C (dose: 3.12 mg/kg/injection, schedule: Q03HX024 (ip), vehicle: saline): 90 % of control
T/C (dose: 3.12 mg/kg/injection, schedule: Q04DX003 (ip), vehicle: saline): 150 % of control
T/C (dose: 3.2 mg/kg/injection, schedule: Q02DX005 (oral), vehicle: saline): 153 % of control
T/C (dose: 5.0 mg/kg/injection, schedule: Q02DX008 (ip), vehicle: other): 216 % of control
T/C (dose: 5.0 mg/kg/injection, schedule: Q02DX008 (oral), vehicle: other): 169 % of control
T/C (dose: 6.25 mg/kg/injection, schedule: Q04DX003 (ip), vehicle: saline): 170 % of control
T/C (dose: 6.4 mg/kg/injection, schedule: Q02DX005 (oral), vehicle: saline): 179 % of control
T/C (dose: 10.0 mg/kg/injection, schedule: Q02DX008 (oral), vehicle: other): 205 % of control
T/C (dose: 12.5 mg/kg/injection, schedule: Q04DX003 (ip), vehicle: saline): 181 % of control
T/C (dose: 12.5 mg/kg/injection, schedule: Q08DX002 (ip), vehicle: saline): 150 % of control
T/C (dose: 12.8 mg/kg/injection, schedule: Q02DX005 (oral), vehicle: saline): 185 % of control
T/C (dose: 15.0 mg/kg/injection, schedule: Q02DX008 (ip), vehicle: other): 104 % of control
T/C (dose: 15.0 mg/kg/injection, schedule: Q02DX008 (oral), vehicle: other): 184 % of control
T/C (dose: 20.0 mg/kg/injection, schedule: Q02DX008 (oral), vehicle: other): 197 % of control
T/C (dose: 25.0 mg/kg/injection, schedule: Q01DX001 (ip), vehicle: water): 123 % of control
T/C (dose: 25.0 mg/kg/injection, schedule: Q08DX002 (ip), vehicle: saline): 151 % of control
T/C (dose: 25.0 mg/kg/injection, schedule: Q## X003 (ip), vehicle: saline): 167 % of control
T/C (dose: 26.0 mg/kg/injection, schedule: Q02DX005 (oral), vehicle: saline): 187 % of control
T/C (dose: 50.0 mg/kg/injection, schedule: Q## X002 (ip), vehicle: saline): 165 % of control
T/C (dose: 50.0 mg/kg/injection, schedule: Q## X016 (ip), vehicle: saline): 98 % of control
T/C (dose: 100.0 mg/kg/injection, schedule: Q01DX001 (ip), vehicle: saline): 156 % of control
T/C (dose: 100.0 mg/kg/injection, schedule: Q## X002 (ip), vehicle: saline): 168 % of control
T/C (dose: 100.0 mg/kg/injection, schedule: Q## X003 (ip), vehicle: saline): 92 % of control
T/C (dose: 150.0 mg/kg/injection, schedule: Q01DX001 (ip), vehicle: water): 159 % of control
T/C (dose: 200.0 mg/kg/injection, schedule: Q01DX001 (ip), vehicle: saline): 110 % of control
T/C (dose: 200.0 mg/kg/injection, schedule: Q01DX001 (ip), vehicle: water): 151 % of control
T/C (dose: 200.0 mg/kg/injection, schedule: Q## X002 (ip), vehicle: saline): 97 % of control
T/C (dose: 400.0 mg/kg/injection, schedule: Q## X002 (ip), vehicle: saline): 89 % of control
T/C (dose: 25.0 micrograms/kg/injection, schedule: Q01DX010 (ip), vehicle: saline): 98 % of control
T/C (dose: 50.0 micrograms/kg/injection, schedule: Q01DX010 (ip), vehicle: saline): 112 % of control

COc1cc2c(cc1OC(C)=O)C(OC(C)=O)CCCC2 (stereo not drawn)
T/C (dose: 5.0 mg/kg/injection, schedule: Q01DX001 (ip), vehicle: saline): 109 % of control
T/C (dose: 10.0 mg/kg/injection, schedule: Q01DX001 (ip), vehicle: saline): 109 % of control
T/C (dose: 20.0 mg/kg/injection, schedule: Q01DX001 (ip), vehicle: saline): 97 % of control
T/C (dose: 40.0 mg/kg/injection, schedule: Q01DX001 (ip), vehicle: saline): 105 % of control

CC(=O)OC(c1ccnc2ccccc12)C1CC2CCN1CC2 (stereo not drawn)
T/C (dose: 50.0 mg/kg/injection, schedule: Q01DX001 (ip), vehicle: carboxymethylcellulose (CMC)): 97 % of control
T/C (dose: 100.0 mg/kg/injection, schedule: Q01DX001 (ip), vehicle: carboxymethylcellulose (CMC)): 97 % of control
T/C (dose: 200.0 mg/kg/injection, schedule: Q01DX001 (ip), vehicle: carboxymethylcellulose (CMC)): 95 % of control

CCC(CC)N1CCCS1(=O)=O
T/C (dose: 100.0 mg/kg/injection, schedule: Q01DX009 (ip), vehicle: saline): 93 % of control
T/C (dose: 200.0 mg/kg/injection, schedule: Q01DX009 (ip), vehicle: saline): 102 % of control
T/C (dose: 400.0 mg/kg/injection, schedule: Q01DX009 (ip), vehicle: saline): 96 % of control

Cc1ccc(OCCOc2ccc(C)c(CC(Cl)(Cl)Cl)c2)cc1CC(Cl)(Cl)Cl
T/C (dose: 100.0 mg/kg/injection, schedule: Q01DX001 (ip), vehicle: DMSO): 88 % of control
T/C (dose: 200.0 mg/kg/injection, schedule: Q01DX001 (ip), vehicle: DMSO): 89 % of control
T/C (dose: 400.0 mg/kg/injection, schedule: Q01DX001 (ip), vehicle: DMSO): 88 % of control

Cc1cc(C)n2ncnc2n1
T/C (dose: 100.0 mg/kg/injection, schedule: Q01DX009 (ip), vehicle: saline with Tween-80): 105 % of control
T/C (dose: 200.0 mg/kg/injection, schedule: Q01DX009 (ip), vehicle: saline with Tween-80): 99 % of control

Cc1nc(C)c([N+](=O)[O-])s1
T/C (dose: 100.0 mg/kg/injection, schedule: Q01DX009 (ip), vehicle: Klucel (hydroxypropylcellulose) (HPC)): 93 % of control
T/C (dose: 100.0 mg/kg/injection, schedule: Q04DX003 (ip), vehicle: Klucel (hydroxypropylcellulose) (HPC)): 100 % of control
T/C (dose: 200.0 mg/kg/injection, schedule: Q01DX009 (ip), vehicle: Klucel (hydroxypropylcellulose) (HPC)): 94 % of control
T/C (dose: 200.0 mg/kg/injection, schedule: Q04DX003 (ip), vehicle: Klucel (hydroxypropylcellulose) (HPC)): 96 % of control
T/C (dose: 400.0 mg/kg/injection, schedule: Q01DX009 (ip), vehicle: Klucel (hydroxypropylcellulose) (HPC)): 101 % of control
T/C (dose: 400.0 mg/kg/injection, schedule: Q04DX003 (ip), vehicle: Klucel (hydroxypropylcellulose) (HPC)): 100 % of control

CCCCCCCC[Se]CCCCCCCC
T/C (dose: 100.0 mg/kg/injection, schedule: Q04DX003 (ip), vehicle: saline with Tween-80): 111 % of control
T/C (dose: 200.0 mg/kg/injection, schedule: Q04DX003 (ip), vehicle: saline with Tween-80): 103 % of control
T/C (dose: 400.0 mg/kg/injection, schedule: Q04DX003 (ip), vehicle: saline with Tween-80): 103 % of control
